In US20240358727A1, “MICROSCALE THERMOPHORESIS TO EVALUATE CHANNEL LIPID INTERACTIONS AND METHODS OF TREATING NAV CHANNELS RELATED DISEASES” (Northeastern University, priority 2023, published 2024):

What was measured:
[1] = target: T1, Nav1.4 (Rattus norvegicus, UniProt P15390); assay: Whole-cell patch clamp of rNav1.4 + Navβ1 in HEK293T cells with optogenetic PI-phosphatases and diC8PI(4,5)P2 in the pipette; assay type: cell-based; settings: for ILATE: % of IPEAK
T1 construct: expressed in transfected cells; host or cells: HEK293T (ATCC CRL-3216)
Excerpt: Purified diC8PI(4,5)P2 was purchased from Echelon Biosciences. For oocyte studies, plasmid vectors were linearized after the Xenopus β-globulin domain of each construct, verified by gel electrophoresis, and transcribed in vitro using the mMESSAGE mMACHINE T7 Transcription Kit (Thermo Fisher Scientific) to generate cRNA according to the manufacturer's protocol. Rat Nav1.4 (SCN4 Å; NM_013178.2) was handled in pBud, a CMV driven vector. To study Nav1.4 currents, the plasmid was used in concert with Navβ1 (SCN1B, isoform b; NM_001037) in pRAT, a CMV driven vector. The inactivation deficient mutant, Nav1.4-WCW was handled in pCap. CRY2-Sac2 was subcloned into pMAX(+) for expression in mammalian cells, or the generation of cRNA for use in Xenopus oocytes. The open reading frame of pseudojanin was designed with an N-terminal CRY2-tag in the pMAX(+) vector and was generated by Genscript (Piscataway, NY).
Human embryonic kidney (HEK293T) cells were acquired from American Type Culture Collection (ATCC, Cat #CRL-3216) and were maintained in Dulbecco's modified Eagle's medium (ATCC) supplemented with 100 units/ml penicillin, 100 μg/ml streptomycin, and 10% (vol/vol) fetal bovine serum. Cells were routinely confirmed to be mycoplasma free via PCR and Hoescht stain. The cells were incubated in a 37° C., humified incubator supplemented with 5% CO2. For our experiments, cells were seeded on glass coverslips in 35 mm culture dishes at least one day before transfection. Cells were transiently transfected with rNav1.4, Navβ1, CIBN-CAAX and CRY2-5-PtaseOCRL or CRY2-pseudojanin, along with the near-infrared PI(4,5)P2 biosensor iRFP-PHPLCδ1 as indicated, in OptiMEM using polyethyleneimine (PEI) for 1-2 hours at a ratio of 1 μg of DNA to 4 μL PEI. The near red fluorescent protein, mCherry, was typically used as a transfection marker. The cells were studied 24-48 hours after transfection.
Whole-cell patch clamp. HEK293T cells were studied by whole cell patch-clamp. Currents were recorded with a Tecella Pico-2 amplifier (Tecella) controlled using WinWCP software (University of Strathclyde). Currents were low pass (Bessel) filtered at 9 kHz and digitized at 50 kHz. […] The cells were perfused using a multichannel gravity-driven perfusion manifold (Warner) with an extracellular solution containing (in mM): 130 NaCl, 5 CsCl, 1.2 MgCl2·6H2O, 1.5 CaCl2), 8 Glucose, 10 HEPES. Data was collected from cells with a series resistance less than 15 MQ. The junction potential was less than 3 mV and was not compensated.
Current-voltage (I-V) relationships were evoked from a holding potential of −90 mV by 400 ms test pulses between −80 and 50 mV, in 5 mV increments. Steady-state inactivation was studied by holding the cells at −140 mV and then comparing currents evoked by 50 ms test pulses between −140 mV and 30 mV to those evoked by a 100 ms prepulse to […]. A 10 s interpulse interval was used in both cases. Normalized peak current values are plotted against the prepulse potential (mV). To quantify voltage-dependence, the data were normalized, plotted against the driving force to generate normalized conductance-voltage relationships (G-V) that were fit using a Boltzmann function, I=IMAX/(1+exp[V−V ½/K]), where IMAX is the maximum current and K is the slope factor. Recovery from fast inactivation was studied by holding cells at −100 mV and comparing currents evoked by a pair of 50 ms test step to −30 mV separated by an interpulse interval that increased in duration by 5 ms increments per sweep. The time constant for recovery from inactivation (τinact) was obtained from mono-exponential fits of the normalized current amplitude to the recovery time using It=Imax+A[e^−t/τ], where ‘A’ is the amplitude of components and ‘t’ is time. Whole-cell currents were normalized to cell capacitance. Mean±SEM capacitance values were 12±4 pF for HEK293T cells. […]

[2] = target: T2, IK1 (Kir2.1) (Rattus norvegicus, UniProt Q64273); settings: diC8-PI(4,5)P2 in recording pipette, concentration dependent; RVCMs, 2% O2; cited from earlier work
T2 construct: endogenous in cells; host or cells: rat ventricular cardiomyocytes (RVCMs)
T2 sequence (Q64273 1-427): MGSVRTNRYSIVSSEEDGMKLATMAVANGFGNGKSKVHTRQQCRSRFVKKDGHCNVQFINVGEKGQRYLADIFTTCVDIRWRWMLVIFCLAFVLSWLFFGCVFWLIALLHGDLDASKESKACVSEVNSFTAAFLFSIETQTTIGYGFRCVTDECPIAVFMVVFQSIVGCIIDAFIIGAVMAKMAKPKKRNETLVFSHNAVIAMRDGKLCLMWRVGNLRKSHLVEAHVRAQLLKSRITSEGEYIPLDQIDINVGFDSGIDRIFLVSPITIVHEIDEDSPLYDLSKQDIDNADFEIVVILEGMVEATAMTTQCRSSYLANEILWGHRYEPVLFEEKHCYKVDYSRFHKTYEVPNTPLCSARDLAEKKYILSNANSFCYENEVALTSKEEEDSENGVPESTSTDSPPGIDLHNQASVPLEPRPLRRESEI

[3] = 200 μM diC8-PIP2 in patch pipette
[4] = 200 μM diC8PI(4,5)P2, CRY2-PJ cells
[5] = 200 μM diC8PI(4,5)P2 vs CRY2-PJ BL
[6] = CRY2-5POCRL, BL + 200 μM diC8PI(4,5)P2
[7] = CRY2-5POCRL, Control + 200 μM diC8PI(4,5)P2
[8] = CRY2-PJ, BL + 200 μM diC8PI(4,5)P2
[9] = CRY2-PJ, Control + 200 μM diC8PI(4,5)P2

T1 sequence (P15390 whole entry): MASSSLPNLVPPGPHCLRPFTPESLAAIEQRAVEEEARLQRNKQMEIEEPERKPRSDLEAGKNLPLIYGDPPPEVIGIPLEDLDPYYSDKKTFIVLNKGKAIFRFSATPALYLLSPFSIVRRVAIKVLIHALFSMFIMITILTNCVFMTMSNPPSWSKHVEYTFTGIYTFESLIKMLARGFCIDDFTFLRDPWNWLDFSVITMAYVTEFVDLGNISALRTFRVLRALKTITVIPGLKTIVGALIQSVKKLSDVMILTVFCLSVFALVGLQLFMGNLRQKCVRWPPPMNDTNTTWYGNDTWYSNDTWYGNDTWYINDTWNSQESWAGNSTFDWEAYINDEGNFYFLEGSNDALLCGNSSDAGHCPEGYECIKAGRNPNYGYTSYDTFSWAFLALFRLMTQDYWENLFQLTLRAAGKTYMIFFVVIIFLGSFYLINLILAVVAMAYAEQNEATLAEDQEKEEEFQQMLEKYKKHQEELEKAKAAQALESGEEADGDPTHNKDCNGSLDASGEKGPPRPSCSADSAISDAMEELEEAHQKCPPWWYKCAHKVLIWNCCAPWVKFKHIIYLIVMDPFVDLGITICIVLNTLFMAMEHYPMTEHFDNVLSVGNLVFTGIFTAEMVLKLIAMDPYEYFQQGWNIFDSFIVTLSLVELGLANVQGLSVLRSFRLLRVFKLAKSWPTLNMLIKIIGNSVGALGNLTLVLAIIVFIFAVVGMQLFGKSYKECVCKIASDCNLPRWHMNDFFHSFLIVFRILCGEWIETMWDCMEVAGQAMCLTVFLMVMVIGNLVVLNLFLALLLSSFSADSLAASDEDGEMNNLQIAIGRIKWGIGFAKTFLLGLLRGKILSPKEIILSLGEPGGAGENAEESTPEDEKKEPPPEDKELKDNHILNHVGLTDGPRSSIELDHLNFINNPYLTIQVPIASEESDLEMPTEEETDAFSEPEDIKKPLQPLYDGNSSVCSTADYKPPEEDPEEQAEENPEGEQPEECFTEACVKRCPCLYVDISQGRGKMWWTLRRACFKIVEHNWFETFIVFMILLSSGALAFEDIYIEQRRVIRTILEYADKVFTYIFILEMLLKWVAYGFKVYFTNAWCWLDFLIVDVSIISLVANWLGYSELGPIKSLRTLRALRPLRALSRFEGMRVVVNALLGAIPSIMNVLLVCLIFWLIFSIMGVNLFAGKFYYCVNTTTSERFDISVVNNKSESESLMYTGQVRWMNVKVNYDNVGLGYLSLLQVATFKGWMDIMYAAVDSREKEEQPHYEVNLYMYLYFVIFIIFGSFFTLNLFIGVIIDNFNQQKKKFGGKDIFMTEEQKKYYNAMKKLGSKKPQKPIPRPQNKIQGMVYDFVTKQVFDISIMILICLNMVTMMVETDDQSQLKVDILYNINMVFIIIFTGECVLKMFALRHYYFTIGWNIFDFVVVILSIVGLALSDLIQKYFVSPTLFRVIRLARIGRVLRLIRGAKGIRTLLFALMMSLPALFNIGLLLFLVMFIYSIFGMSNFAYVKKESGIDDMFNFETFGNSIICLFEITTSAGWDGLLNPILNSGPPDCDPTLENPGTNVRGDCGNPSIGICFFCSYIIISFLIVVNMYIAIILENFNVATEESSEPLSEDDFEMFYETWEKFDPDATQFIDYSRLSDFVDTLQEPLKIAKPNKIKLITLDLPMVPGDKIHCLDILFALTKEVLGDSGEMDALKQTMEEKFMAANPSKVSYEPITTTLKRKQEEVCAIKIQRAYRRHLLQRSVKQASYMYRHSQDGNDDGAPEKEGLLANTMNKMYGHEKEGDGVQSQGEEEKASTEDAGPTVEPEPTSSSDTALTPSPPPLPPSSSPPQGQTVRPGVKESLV
T1 sequence (Q07699 19-218 partner): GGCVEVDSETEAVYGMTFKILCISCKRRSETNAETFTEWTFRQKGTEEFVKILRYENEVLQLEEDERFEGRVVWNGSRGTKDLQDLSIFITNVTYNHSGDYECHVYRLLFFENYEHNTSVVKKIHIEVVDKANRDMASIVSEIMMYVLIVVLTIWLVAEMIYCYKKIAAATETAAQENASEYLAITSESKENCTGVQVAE

With CCCCCCCC(=O)OC[C@H](COP(=O)(O)O[C@@H]1[C@H](O)[C@H](O)[C@@H](OP(=O)(O)O)[C@H](OP(=O)(O)O)[C@H]1O)OC(=O)CCCCCCC [diC8-PIP2] the “effect on V½ACT of Nav1.4” value [1, 3] was “rightward shift”, the “effect on V½SSI of Nav1.4” value [1, 3] was “no effect” and the “effect on CRY2-5POCRL effects on voltage-dependent gating” value ([1]; 200 μM diC8PI(4,5)P2) was “precluded”. The “effect on CRY2-PJ photoactivation effects on V½act” value ([1]; 200 μM diC8PI(4,5)P2) was “ameliorated”, the “right shift in V½act” value ([1]; 200 μM diC8PI(4,5)P2, CRY2-5POCRL cells) was about 5 mV and the “effect on increase in the magnitude of the window current” value ([1]; 200 μM diC8PI(4,5)P2, CRY2-PJ) was “abolished”. For the same molecule, the “right-shift in V½SSI compared to untreated cells” value [1, 4] was about 3 mV, the “right-shift in V½act compared to untreated cells” value [1, 4] was −5.5 mV and the “overall excursion in mean V½ACT between diC8PI(4,5)P2 treated cells and control cells after photoactivation” value ([1]; 200 μM diC8PI(4,5)P2 vs CRY2-5POCRL BL) was −12.5±3 mV. For the same molecule, the “change in mean V½act between diC8PI(4,5)P2 treated cells and control cells after dephosphorylation” value [1, 5] was −16±2 mV, the “shift in mean V½SSI between diC8PI(4,5)P2 treated cells and control cells after dephosphorylation” value [1, 5] was −5.4±2 mV and the KAct [1, 6] was 5.2 ± 0.3 mV. For the same molecule, the KSSI [1, 6] was −5.1 ± 1^ mV, the V½SSI [1, 6] was −57 ± 1 mV and the V½act [1, 6] was −32 ± 1 mV. The “tau (fast inactivation)” value [1, 6] was 7.4 ± 0.6 ms, the IPEAK ([1]; CRY2-5POCRL, BL + 200 μM diC8PI(4,5)P2, −20 mV) was −268 ± 25 pA/pF and the IPEAK ([1]; CRY2-5POCRL, BL + 200 μM diC8PI(4,5)P2, −40 mV) was −202 ± 21 pA/pF. The IPEAK ([1]; CRY2-5POCRL, BL + 200 μM diC8PI(4,5)P2, −60 mV) was −19 ± 4 pA/pF, the ILATE [1, 6] was 0.27 ± 0.02% and the KAct [1, 7] was 5.0 ± 0.2 mV. For the same molecule, the KSSI [1, 7] was −5.0 ± 2^ mV, the V½SSI [1, 7] was −58 ± 2 mV and the V½act [1, 7] was −32 ± 1 mV. For the same molecule, the “tau (fast inactivation)” value [1, 7] was 6.0 ± 0.3 ms, the IPEAK ([1]; CRY2-5POCRL, Control + 200 μM diC8PI(4,5)P2, −20 mV) was −274 ± 32 pA/pF and the IPEAK ([1]; CRY2-5POCRL, Control + 200 μM diC8PI(4,5)P2, −40 mV) was −186 ± 28 pA/pF. It also gave an IPEAK ([1]; CRY2-5POCRL, Control + 200 μM diC8PI(4,5)P2, −60 mV) of −23 ± 6 pA/pF, an ILATE [1, 7] of 0.26 ± 0.02% and a KAct [1, 8] of 5.0 ± 1.0 mV. The KSSI [1, 8] was −5.1 ± 0.5 mV, the V½SSI [1, 8] was −54 ± 2 mV and the V½act [1, 8] was −33 ± 4 mV. The “tau (fast inactivation)” value [1, 8] was 5.1 ± 0.3 ms, the IPEAK ([1]; CRY2-PJ, BL + 200 μM diC8PI(4,5)P2, −20 mV) was −272 ± 24 pA/pF and the IPEAK ([1]; CRY2-PJ, BL + 200 μM diC8PI(4,5)P2, −40 mV) was −209 ± 22 pA/pF. The IPEAK ([1]; CRY2-PJ, BL + 200 μM diC8PI(4,5)P2, −60 mV) was −23 ± 3 pA/pF, the ILATE [1, 8] was 0.38 ± 0.03% and the KAct [1, 9] was 4.0 ± 0.7 mV. For the same molecule, the KSSI [1, 9] was −4.2 ± 1.0 mV, the V½SSI [1, 9] was −55 ± 4 mV and the V½act [1, 9] was −33 ± 3 mV. The “tau (fast inactivation)” value [1, 9] was 4.7 ± 0.2 ms, the IPEAK ([1]; CRY2-PJ, Control + 200 μM diC8PI(4,5)P2, −20 mV) was −264 ± 18 pA/pF and the IPEAK ([1]; CRY2-PJ, Control + 200 μM diC8PI(4,5)P2, −40 mV) was −194 ± 24 pA/pF. The IPEAK ([1]; CRY2-PJ, Control + 200 μM diC8PI(4,5)P2, −60 mV) was −19 ± 2 pA/pF, the ILATE ([1]; CRY2-PJ, Control + 200 μM diC8PI(4,5)P2, pulse to −20 mV) was 0.37 ± 0.1% and the “effect on hypoxic inhibition of IK1” value [2] was “opposed”.
